According to publication PMC5218480 (PLoS ONE, 2017):

System: MV-4-11 cells
Experiment: Gene expression microarray analysis (Affymetrix PrimeView) and GSEA
Type: cell-based, human
Parameters: RFU PODN (11730768_x_at) / Fold change /veh PODN (11730768_x_at) / RFU LINC00158 (11744669_a_at) / Fold change /veh LINC00158 (11744669_a_at) / RFU DUSP10 (11751237_a_at) / Fold change /veh DUSP10 (11751237_a_at) / RFU ID3 (11757404_x_at) / Fold change /veh ID3 (11757404_x_at) / RFU PLEKHG5 (11737974_s_at) / Fold change /veh PLEKHG5 (11737974_s_at) / RFU LRRC4B (11730491_at) / Fold change /veh LRRC4B (11730491_at) / RFU GIMAP4 (11747438_a_at) / Fold change /veh GIMAP4 (11747438_a_at) / RFU KRT8 (11758183_x_at) / Fold change /veh KRT8 (11758183_x_at) / RFU CNN1 (11734310_a_at) / Fold change /veh CNN1 (11734310_a_at) / RFU VPS37D (11726825_at) / Fold change /veh VPS37D (11726825_at) / RFU C10orf10 (11716522_x_at) / Fold change /veh C10orf10 (11716522_x_at) / RFU KIR2DL2 /// KIR2DL4 /// KIR2DL5A /// KIR2DL5B /// KIR2DS1 /// KIR2DS2 /// KIR2DS3 /// KIR2DS4 /// KIR3DL3 /// KIR3DL3 /// KIR3DS1 (11738374_at) / Fold change /veh KIR2DL2 /// KIR2DL4 /// KIR2DL5A /// KIR2DL5B /// KIR2DS1 /// KIR2DS2 /// KIR2DS3 /// KIR2DS4 /// KIR3DL3 /// KIR3DL3 /// KIR3DS1 (11738374_at) / RFU C1QL1 (11718748_at) / Fold change /veh C1QL1 (11718748_at) / RFU TMPRSS4 (11747572_a_at) / Fold change /veh TMPRSS4 (11747572_a_at) / RFU HAMP (11756126_x_at) / Fold change /veh HAMP (11756126_x_at) / RFU RNFT2 (11725882_a_at) / Fold change /veh RNFT2 (11725882_a_at) / RFU NR4A2 (11747474_a_at) / Fold change /veh NR4A2 (11747474_a_at) / RFU ABCC12 (11746883_a_at) / Fold change /veh ABCC12 (11746883_a_at) / RFU TMEM136 (11760407_x_at) / Fold change /veh TMEM136 (11760407_x_at) / RFU CLDN22 /// WWC2 (11732394_at) / Fold change /veh CLDN22 /// WWC2 (11732394_at) / RFU HLA-DPB1 (11760878_x_at) / Fold change /veh HLA-DPB1 (11760878_x_at) / RFU SPINT1 (11716480_a_at) / Fold change /veh SPINT1 (11716480_a_at) / RFU GAP43 (11754022_s_at) / Fold change /veh GAP43 (11754022_s_at) / RFU A4GNT (11735810_at) / Fold change /veh A4GNT (11735810_at) / RFU PRB3 (11715151_x_at) / Fold change /veh PRB3 (11715151_x_at) / RFU TUBB4B (11761932_at) / Fold change /veh TUBB4B (11761932_at) / RFU CAPN14 (11732068_a_at) / Fold change /veh CAPN14 (11732068_a_at) / RFU TMCC2 (11721928_a_at) / Fold change /veh TMCC2 (11721928_a_at) / RFU IRGQ (11745062_a_at) / Fold change /veh IRGQ (11745062_a_at) / RFU FAM174B (11720279_a_at) / Fold change /veh FAM174B (11720279_a_at) / RFU TMPRSS4 (11748680_a_at) / Fold change /veh TMPRSS4 (11748680_a_at) / RFU FAM212B (11763350_a_at) / Fold change /veh FAM212B (11763350_a_at) / RFU PLEKHG5 (11743358_a_at) / Fold change /veh PLEKHG5 (11743358_a_at) / RFU ZSCAN30 (11745921_a_at) / Fold change /veh ZSCAN30 (11745921_a_at) / RFU CMKLR1 (11741424_a_at) / Fold change /veh CMKLR1 (11741424_a_at) / RFU LOC101060620 /// MAPK8IP1 (11723275_at) / Fold change /veh LOC101060620 /// MAPK8IP1 (11723275_at) / RFU SPTSSB (11747773_x_at) / Fold change /veh SPTSSB (11747773_x_at) / RFU PRSS12 (11739890_at) / Fold change /veh PRSS12 (11739890_at) / RFU BIN1 (11741810_x_at) / Fold change /veh BIN1 (11741810_x_at) / RFU WNT11 (11732464_a_at) / Fold change /veh WNT11 (11732464_a_at) / RFU C10orf10 (11716521_a_at) / Fold change /veh C10orf10 (11716521_a_at) / RFU C5orf56 (11738089_at) / Fold change /veh C5orf56 (11738089_at) / RFU CYB561 (11721691_x_at) / Fold change /veh CYB561 (11721691_x_at) / RFU ANKRD19P (11752326_a_at) / Fold change /veh ANKRD19P (11752326_a_at) / RFU OR2T12 /// OR2T33 /// OR2T8 (11738714_s_at) / Fold change /veh OR2T12 /// OR2T33 /// OR2T8 (11738714_s_at) / RFU VCAN (11748164_a_at) / Fold change /veh VCAN (11748164_a_at) / RFU JSRP1 (11732532_at) / Fold change /veh JSRP1 (11732532_at) / RFU KRTAP10-11 (11738290_x_at) / Fold change /veh KRTAP10-11 (11738290_x_at) / RFU MYO3A (11730013_a_at) / Fold change /veh MYO3A (11730013_a_at) / RFU EBF3 (11725865_a_at) / Fold change /veh EBF3 (11725865_a_at) / RFU CAMK2N1 (11719241_x_at) / Fold change /veh CAMK2N1 (11719241_x_at) / RFU C5orf56 (11738088_a_at) / Fold change /veh C5orf56 (11738088_a_at) / RFU OLFML3 (11715873_a_at) / Fold change /veh OLFML3 (11715873_a_at) / RFU LOC100653217 /// NTM (11731650_a_at) / Fold change /veh LOC100653217 /// NTM (11731650_a_at) / RFU MAPK11 (11762145_a_at) / Fold change /veh MAPK11 (11762145_a_at) / RFU FIZ1 (11724087_x_at) / Fold change /veh FIZ1 (11724087_x_at) / RFU OASL (11726364_x_at) / Fold change /veh OASL (11726364_x_at) / RFU SOX15 (11748057_x_at) / Fold change /veh SOX15 (11748057_x_at) / RFU CD79A (11719716_a_at) / Fold change /veh CD79A (11719716_a_at) / RFU HIST1H1D (11736915_at) / Fold change /veh HIST1H1D (11736915_at) / RFU CASKIN2 (11723855_a_at) / Fold change /veh CASKIN2 (11723855_a_at) / RFU LOC730098 (11760151_x_at) / Fold change /veh LOC730098 (11760151_x_at) / RFU OR4N2 (11742367_at) / Fold change /veh OR4N2 (11742367_at) / RFU PRRT2 (11749266_a_at) / Fold change /veh PRRT2 (11749266_a_at) / RFU SNX32 (11753110_a_at) / Fold change /veh SNX32 (11753110_a_at) / RFU CDHR5 (11726645_a_at) / Fold change /veh CDHR5 (11726645_a_at) / RFU RCAN1 (11760418_a_at) / Fold change /veh RCAN1 (11760418_a_at) / RFU FAM167A (11723789_a_at) / Fold change /veh FAM167A (11723789_a_at) / RFU FAM26E (11764081_at) / Fold change /veh FAM26E (11764081_at) / RFU ISYNA1 (11749810_s_at) / Fold change /veh ISYNA1 (11749810_s_at) / RFU ACY1 (11761880_at) / Fold change /veh ACY1 (11761880_at) / RFU 11764098_at / Fold change /veh 11764098_at / RFU SAMD14 (11745864_x_at) / Fold change /veh SAMD14 (11745864_x_at) / RFU NPB (11741838_a_at) / Fold change /veh NPB (11741838_a_at) / RFU TMPRSS6 (11731388_a_at) / Fold change /veh TMPRSS6 (11731388_a_at) / RFU KRTAP10-2 (11738614_at) / Fold change /veh KRTAP10-2 (11738614_at) / RFU ARHGAP8 /// PRR5-ARHGAP8 (11727945_x_at) / Fold change /veh ARHGAP8 /// PRR5-ARHGAP8 (11727945_x_at) / RFU KRTAP5-7 /// NADSYN1 (11734609_at) / Fold change /veh KRTAP5-7 /// NADSYN1 (11734609_at) / RFU RASL12 (11751679_a_at) / Fold change /veh RASL12 (11751679_a_at) / RFU CDKN2B (11736163_a_at) / Fold change /veh CDKN2B (11736163_a_at) / RFU PRF1 (11729649_at) / Fold change /veh PRF1 (11729649_at) / RFU, ZNF638 /// ZNF638-IT1 / Fold change vs veh, ZNF638 /// ZNF638-IT1 / RFU, PANK3 / Fold change vs veh, PANK3 / RFU, SH3YL1 / Fold change vs veh, SH3YL1 / RFU, ZEB2 / Fold change vs veh, ZEB2 / RFU, NRIP1 / Fold change vs veh, NRIP1 / RFU, PTTG1IP / Fold change vs veh, PTTG1IP / RFU, CAPN2 / Fold change vs veh, CAPN2 / RFU, MED14 / Fold change vs veh, MED14 / RFU, SNORA58 / Fold change vs veh, SNORA58 / RFU, C1orf63 / Fold change vs veh, C1orf63 / RFU, LRRFIP1 / Fold change vs veh, LRRFIP1 / RFU, NDUFAF7 / Fold change vs veh, NDUFAF7 / RFU, SLC12A2 / Fold change vs veh, SLC12A2 / RFU, IBTK / Fold change vs veh, IBTK / RFU, ESF1 / Fold change vs veh, ESF1 / Fold change vs veh, TMEM50B / RFU, TAOK1 / Fold change vs veh, TAOK1 / RFU, ACBD3 / Fold change vs veh, ACBD3 / RFU, TMA16 / Fold change vs veh, TMA16 / RFU, RWDD3 / Fold change vs veh, RWDD3 / RFU, BCAT1 / Fold change vs veh, BCAT1 / RFU, EDEM3 / Fold change vs veh, EDEM3 / RFU, TMEM33 / Fold change vs veh, TMEM33 / RFU, WDR75 / Fold change vs veh, WDR75 / RFU, AHCTF1 / Fold change vs veh, AHCTF1 / RFU, TFRC / Fold change vs veh, TFRC / RFU, ZDHHC17 / Fold change vs veh, ZDHHC17 / RFU, NOM1 / Fold change vs veh, NOM1 / RFU, ARL8B / Fold change vs veh, ARL8B / RFU, ZBTB11 / Fold change vs veh, ZBTB11 / RFU, TAMM41 / Fold change vs veh, TAMM41 / RFU, KIAA1704 /// LOC100996395 / Fold change vs veh, KIAA1704 /// LOC100996395 / RFU, ING1 / Fold change vs veh, ING1 / RFU, TRMT61B / Fold change vs veh, TRMT61B / RFU, FUBP3 / Fold change vs veh, FUBP3 / RFU, TP53 / Fold change vs veh, TP53 / RFU, TNKS2 / Fold change vs veh, TNKS2 / RFU, ZFP14 / Fold change vs veh, ZFP14 / RFU, ACTR2 / Fold change vs veh, ACTR2 / RFU, PPP3R1 / Fold change vs veh, PPP3R1 / RFU, PIK3R1 / Fold change vs veh, PIK3R1 / RFU, HNRNPA1 / Fold change vs veh, HNRNPA1 / RFU, RNF170 / Fold change vs veh, RNF170 / RFU, ZNF28 / Fold change vs veh, ZNF28 / RFU, RNGTT / Fold change vs veh, RNGTT / RFU, OGT / Fold change vs veh, OGT / RFU, BRD1 / Fold change vs veh, BRD1 / RFU, MARS / Fold change vs veh, MARS / RFU, ZNF655 / Fold change vs veh, ZNF655 / RFU, FAHD1 / Fold change vs veh, FAHD1 / RFU, BDP1 / Fold change vs veh, BDP1 / RFU, LRRCC1 / Fold change vs veh, LRRCC1 / RFU, ARID1A / Fold change vs veh, ARID1A / RFU, ZNF146 / Fold change vs veh, ZNF146 / RFU, ZNF330 / Fold change vs veh, ZNF330 / RFU, GPN3 / Fold change vs veh, GPN3 / RFU, C9orf123 / Fold change vs veh, C9orf123 / RFU, N4BP2L2 / Fold change vs veh, N4BP2L2 / RFU, ARFIP1 / Fold change vs veh, ARFIP1 / RFU, FAM179B / Fold change vs veh, FAM179B / RFU, BCL10 / Fold change vs veh, BCL10 / RFU, UHRF1BP1L / Fold change vs veh, UHRF1BP1L / RFU, BET1 / Fold change vs veh, BET1 / RFU, CNOT2 / Fold change vs veh, CNOT2 / RFU, ZNF268 / Fold change vs veh, ZNF268 / Fold change vs veh, ZNF507 / RFU, DGCR2 / Fold change vs veh, DGCR2 / RFU, WDSUB1 / Fold change vs veh, WDSUB1 / Fold change vs veh, HSP90B1 /// MIR3652 / RFU, ADSS / Fold change vs veh, ADSS / RFU, GK / Fold change vs veh, GK / RFU, ZNF148 / Fold change vs veh, ZNF148 / RFU, TAF9 / Fold change vs veh, TAF9 / RFU, SLC1A5 / Fold change vs veh, SLC1A5 / RFU, SLMO2 / Fold change vs veh, SLMO2 / RFU, ABCC4 / Fold change vs veh, ABCC4 / RFU, LOC101060439 /// RAP1B / Fold change vs veh, LOC101060439 /// RAP1B / RFU, RFX7 / Fold change vs veh, RFX7 / RFU, GTPBP10 / Fold change vs veh, GTPBP10 / RFU, CNEP1R1 / Fold change vs veh, CNEP1R1 / RFU, BIVM-ERCC5 /// ERCC5 / Fold change vs veh, BIVM-ERCC5 /// ERCC5 / RFU, ILF3 / Fold change vs veh, ILF3 / RFU 11762660_at / Fold change /veh 11762660_at / RFU VCAN (11757783_s_at) / Fold change /veh VCAN (11757783_s_at) / RFU DDX43 (11728927_at) / Fold change /veh DDX43 (11728927_at) / RFU KRT8 (11758188_x_at) / Fold change /veh KRT8 (11758188_x_at) / RFU NKD1 (11759106_at) / Fold change /veh NKD1 (11759106_at) / RFU SRD5A1 (11742802_a_at) / Fold change /veh SRD5A1 (11742802_a_at) / RFU TPSAB1 /// TPSB2 (11721975_s_at) / Fold change /veh TPSAB1 /// TPSB2 (11721975_s_at) / RFU GSTM3 (11746129_a_at) / Fold change /veh GSTM3 (11746129_a_at) / RFU IL23R (11737362_x_at) / Fold change /veh IL23R (11737362_x_at) / RFU TMEM51 (11727254_a_at) / Fold change /veh TMEM51 (11727254_a_at) / RFU PIWIL2 (11732686_x_at) / Fold change /veh PIWIL2 (11732686_x_at) / RFU ORM1 (11744905_x_at) / Fold change /veh ORM1 (11744905_x_at) / RFU CCDC152 (11743942_at) / Fold change /veh CCDC152 (11743942_at) / RFU ECM1 (11717891_a_at) / Fold change /veh ECM1 (11717891_a_at) / RFU IL23R (11748794_a_at) / Fold change /veh IL23R (11748794_a_at) / RFU TNFAIP8L3 (11732012_x_at) / Fold change /veh TNFAIP8L3 (11732012_x_at) / RFU MBOAT4 (11741988_at) / Fold change /veh MBOAT4 (11741988_at) / RFU 11764193_at / Fold change /veh 11764193_at / RFU TMEM53 (11763286_at) / Fold change /veh TMEM53 (11763286_at) / RFU MAGEB2 (11727129_at) / Fold change /veh MAGEB2 (11727129_at) / RFU TMEM200A (11744735_a_at) / Fold change /veh TMEM200A (11744735_a_at) / RFU CCDC152 (11751479_a_at) / Fold change /veh CCDC152 (11751479_a_at) / RFU FAM211A (11726209_a_at) / Fold change /veh FAM211A (11726209_a_at) / RFU RGS16 (11746705_a_at) / Fold change /veh RGS16 (11746705_a_at) / RFU VCAN (11755009_s_at) / Fold change /veh VCAN (11755009_s_at) / RFU RHOB (11743442_s_at) / Fold change /veh RHOB (11743442_s_at) / RFU RGS16 (11720943_a_at) / Fold change /veh RGS16 (11720943_a_at) / RFU RGS16 (11720944_at) / Fold change /veh RGS16 (11720944_at) / RFU, VPS4B / Fold change vs veh, VPS4B / RFU, CREB1 / Fold change vs veh, CREB1 / RFU, DNAJC13 / Fold change vs veh, DNAJC13 / RFU, GNAQ / Fold change vs veh, GNAQ / RFU, CDK5R1 / Fold change vs veh, CDK5R1 / RFU, ZRANB3 / Fold change vs veh, ZRANB3 / RFU, CUL4A / Fold change vs veh, CUL4A / RFU, CCNY / Fold change vs veh, CCNY / RFU, UFL1 / Fold change vs veh, UFL1 / RFU, COG3 / Fold change vs veh, COG3 / RFU, DIAPH2 / Fold change vs veh, DIAPH2 / RFU, SKA2 / Fold change vs veh, SKA2 / RFU, AFF3 / Fold change vs veh, AFF3 / RFU, LMF1 / Fold change vs veh, LMF1 / RFU, IPO11 / Fold change vs veh, IPO11 / RFU, DFFB / Fold change vs veh, DFFB / RFU, FOXP1 / Fold change vs veh, FOXP1 / RFU, CARD8 / Fold change vs veh, CARD8 / RFU, STRN3 / Fold change vs veh, STRN3 / RFU, ADK / Fold change vs veh, ADK / RFU, RASSF2 / Fold change vs veh, RASSF2 / RFU, WIPF1 / Fold change vs veh, WIPF1 / RFU, LARP1B / Fold change vs veh, LARP1B / RFU, RASA1 / Fold change vs veh, RASA1 / RFU, RB1 / Fold change vs veh, RB1 / RFU, PPFIA1 / Fold change vs veh, PPFIA1 / RFU, MAT2A / Fold change vs veh, MAT2A / RFU, CCT5 / Fold change vs veh, CCT5 / RFU, WDR92 / Fold change vs veh, WDR92 / RFU, CUX1 / Fold change vs veh, CUX1 / RFU, TTC7A / Fold change vs veh, TTC7A / RFU, TMEM135 / Fold change vs veh, TMEM135 / RFU, DEPTOR / Fold change vs veh, DEPTOR / RFU, CPM / Fold change vs veh, CPM / RFU, DNAJB6 / Fold change vs veh, DNAJB6 / RFU, CACNA2D3 / Fold change vs veh, CACNA2D3 / RFU, DTX4 / Fold change vs veh, DTX4 / RFU, TFCP2 / Fold change vs veh, TFCP2 / RFU, GMCL1 /// GMCL1P1 / Fold change vs veh, GMCL1 /// GMCL1P1 / RFU, AEBP2 / Fold change vs veh, AEBP2 / RFU, SNHG1 /// SNORD22 /// SNORD25 /// SNORD26 /// SNORD27 /// SNORD28 /// SNORD29 /// SNORD31 / Fold change vs veh, SNHG1 /// SNORD22 /// SNORD25 /// SNORD26 /// SNORD27 /// SNORD28 /// SNORD29 /// SNORD31 / Fold change (Aza/veh), C12orf56 (ProbeSet 11735607_a_at) / Fold change (ACY-1035/veh), C12orf56 (ProbeSet 11735607_a_at) / Fold change (Aza/veh), FGFR1OP (ProbeSet 11751329_s_at) / Fold change (ACY-1035/veh), FGFR1OP (ProbeSet 11751329_s_at) / Fold change (Aza/veh), VPS36 (ProbeSet 11739960_a_at) / Fold change (ACY-1035/veh), VPS36 (ProbeSet 11739960_a_at) / RFU SYPL1 (11715823_x_at) / Fold change /veh SYPL1 (11715823_x_at) / RFU IGFBP7 (11715501_s_at) / Fold change /veh IGFBP7 (11715501_s_at) / RFU REEP3 (11722064_at) / Fold change /veh REEP3 (11722064_at) / RFU IGLL1 (11728026_x_at) / Fold change /veh IGLL1 (11728026_x_at): dose or concentration left out as unconfirmed
Details: ProbeSet 11745260_x_at; LIST B

Nc1ncn([C@@H]2O[C@H](CO)[C@@H](O)[C@H]2O)c(=O)n1 [azacitidine]
Fold change vs veh, SLC12A2: 0.91
